Results taken from US5532267A, “Amidinonaphthyl furancarboxylate derivatives and acid addition salts therof” (Torii & Co., Ltd., priority 1992, dated 1996).
Structures can show the parent of a compound that is named as a salt. Where two headings read alike, the source gives them in different places.

Columns and labels:
Assay type in all cases: biochemical
thrombin = thrombin (Homo sapiens, UniProt P00734); test: anti-thrombin activity, hydrolysis of TAME (tosylarginine methyl ester); settings: for IC50: hydrolysis of TAME, read-out: Thr: molar concentration inhibiting 50% of enzyme activity (IC50); for inhibition at 10 µM: at a concentration of 1 × 10^-5 M, read-out: Thr: percentage inhibition
Experimental: (§1) The values in Table 1 represent molar concentrations (IC50) of test compounds which inhibit 50% of the activity of each enzyme to hydrolyze TAME (tosylarginine methyl ester). The anti-trypsin, anti-plasmin, anti-kallikrein and anti-thrombin activities were determined according to the method of Muramatsu et al. (J. Biochem. (1965), volume 58, page 214).

trypsin = biological target: T1, trypsin (Bos taurus, UniProt P00760); test: anti-trypsin activity, hydrolysis of TAME (tosylarginine methyl ester)
T1 sequence (P00760 24-246): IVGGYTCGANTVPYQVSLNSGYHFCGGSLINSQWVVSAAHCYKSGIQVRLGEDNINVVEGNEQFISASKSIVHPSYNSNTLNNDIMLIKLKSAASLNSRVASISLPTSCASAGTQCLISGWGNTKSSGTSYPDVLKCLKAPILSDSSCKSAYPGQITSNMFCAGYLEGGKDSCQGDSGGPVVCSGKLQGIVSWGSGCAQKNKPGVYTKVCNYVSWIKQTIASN

kallikrein = test: anti-kallikrein activity, hydrolysis of TAME (tosylarginine methyl ester); settings: for IC50: hydrolysis of TAME, read-out: Kal: molar concentration inhibiting 50% of enzyme activity (IC50); for Kal: percentage inhibition: at a concentration of 1 × 10^-5 M
Experimental: as §1

C1r = biological target: T2, C1r (Homo sapiens, UniProt P00736); test: anti-complement (anti-C1 esterase) activity, C1r hydrolysis of AAME (acetyl-arginine methyl ester); settings: for inhibition at 10 µM: read-out: Clr: percentage inhibition
T2 sequence (P00736 18-705): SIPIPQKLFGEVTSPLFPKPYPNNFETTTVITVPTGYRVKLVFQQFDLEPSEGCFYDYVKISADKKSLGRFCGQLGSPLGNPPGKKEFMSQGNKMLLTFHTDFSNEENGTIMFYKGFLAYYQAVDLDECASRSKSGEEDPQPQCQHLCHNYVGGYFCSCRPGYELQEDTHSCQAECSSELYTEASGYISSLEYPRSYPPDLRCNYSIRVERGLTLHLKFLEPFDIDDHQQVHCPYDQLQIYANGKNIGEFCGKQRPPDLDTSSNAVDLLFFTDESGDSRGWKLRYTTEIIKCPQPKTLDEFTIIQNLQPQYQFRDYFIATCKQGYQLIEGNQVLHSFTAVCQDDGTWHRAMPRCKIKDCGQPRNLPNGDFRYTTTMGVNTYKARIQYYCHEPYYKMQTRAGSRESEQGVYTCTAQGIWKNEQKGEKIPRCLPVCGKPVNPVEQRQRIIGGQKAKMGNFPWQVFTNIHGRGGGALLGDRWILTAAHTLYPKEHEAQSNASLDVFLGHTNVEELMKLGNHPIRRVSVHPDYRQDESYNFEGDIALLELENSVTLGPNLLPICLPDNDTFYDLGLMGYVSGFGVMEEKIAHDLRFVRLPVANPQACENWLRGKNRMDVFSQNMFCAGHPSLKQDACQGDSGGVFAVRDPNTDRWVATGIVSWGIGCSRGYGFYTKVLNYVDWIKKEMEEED

plasmin = plasmin (Homo sapiens, UniProt P00747); test: anti-plasmin activity, hydrolysis of TAME (tosylarginine methyl ester)
Experimental: as §1

C1s = biological target: T3, C1s (Homo sapiens, UniProt P09871); test: anti-complement (anti-C1 esterase) activity, C1s hydrolysis of ATEE (acetyltyrosine ethyl ester); settings: for IC50: hydrolysis of ATEE, read-out: Cls: molar concentration inhibiting 50% of C1s activity (IC50)
T3 sequence (P09871 16-688): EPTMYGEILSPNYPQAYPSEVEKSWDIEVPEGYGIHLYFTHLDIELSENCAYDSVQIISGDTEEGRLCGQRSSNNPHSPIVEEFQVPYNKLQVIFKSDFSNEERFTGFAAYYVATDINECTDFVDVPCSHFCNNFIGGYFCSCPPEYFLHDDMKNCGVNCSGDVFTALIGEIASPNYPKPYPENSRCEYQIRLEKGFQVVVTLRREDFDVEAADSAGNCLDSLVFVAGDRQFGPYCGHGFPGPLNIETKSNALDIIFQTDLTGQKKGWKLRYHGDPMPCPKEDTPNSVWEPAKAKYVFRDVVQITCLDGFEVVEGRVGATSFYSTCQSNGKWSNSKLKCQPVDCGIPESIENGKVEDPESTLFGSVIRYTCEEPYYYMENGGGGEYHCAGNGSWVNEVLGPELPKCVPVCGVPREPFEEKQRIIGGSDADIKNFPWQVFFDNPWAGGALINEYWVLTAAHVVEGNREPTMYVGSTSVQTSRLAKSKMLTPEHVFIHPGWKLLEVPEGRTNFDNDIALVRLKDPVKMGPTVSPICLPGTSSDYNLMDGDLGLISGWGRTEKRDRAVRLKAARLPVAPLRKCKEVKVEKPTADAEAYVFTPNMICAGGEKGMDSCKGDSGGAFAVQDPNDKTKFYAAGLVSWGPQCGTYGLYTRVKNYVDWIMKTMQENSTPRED
Experimental: The anti-C1 esterase (C1r, C1s) activity was determined according to the method of Okamura et al. (Biochem. Biophys. Acta (1973), volume 295, pages 252-257). […] The values for C1s represent molar concentrations (IC50) of test compounds which inhibit 50% of the activity of C1s to hydrolyze ATEE (acetyltyrosine ethyl ester).

[1] = hydrolysis of AAME, read-out: Clr: molar concentration inhibiting 50% of C1r activity (IC50)
[2] = hydrolysis of TAME, read-out: Pla: molar concentration inhibiting 50% of enzyme activity (IC50)
[3] = hydrolysis of TAME, read-out: Try: molar concentration inhibiting 50% of enzyme activity (IC50)

Sequence of plasmin (P00747 581-810 limits assumed, species assumed): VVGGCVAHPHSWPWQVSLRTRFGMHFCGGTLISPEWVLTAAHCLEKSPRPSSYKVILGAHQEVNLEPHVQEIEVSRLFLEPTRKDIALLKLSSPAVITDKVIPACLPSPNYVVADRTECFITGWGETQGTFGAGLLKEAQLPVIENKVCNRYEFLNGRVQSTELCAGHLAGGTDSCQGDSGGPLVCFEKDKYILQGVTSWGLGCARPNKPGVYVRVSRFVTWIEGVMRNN
Sequence of plasmin (P00747 97-580 partner limits assumed, species assumed): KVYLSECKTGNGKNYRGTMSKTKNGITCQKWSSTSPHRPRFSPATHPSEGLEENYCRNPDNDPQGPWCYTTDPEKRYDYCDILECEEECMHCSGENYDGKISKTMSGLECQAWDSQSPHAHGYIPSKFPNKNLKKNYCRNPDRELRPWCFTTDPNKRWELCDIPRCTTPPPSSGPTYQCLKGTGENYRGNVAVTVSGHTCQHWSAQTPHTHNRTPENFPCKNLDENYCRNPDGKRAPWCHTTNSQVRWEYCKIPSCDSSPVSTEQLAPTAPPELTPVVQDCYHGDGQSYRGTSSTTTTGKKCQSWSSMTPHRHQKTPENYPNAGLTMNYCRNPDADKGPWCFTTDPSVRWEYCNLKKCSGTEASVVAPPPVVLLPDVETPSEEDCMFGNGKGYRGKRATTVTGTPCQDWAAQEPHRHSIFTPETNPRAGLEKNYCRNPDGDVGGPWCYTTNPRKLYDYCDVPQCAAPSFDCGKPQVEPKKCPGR

SMILES	IC50 (thrombin) [nM]	IC50 (kallikrein) [nM]	IC50 (C1r; [1]) [nM]	IC50 (plasmin; [2]) [nM]	IC50 (C1s) [nM]	IC50 (trypsin; [3]) [nM]	IC50 (C1r) [nM]	IC50 (trypsin) [nM]	inhibition at 10 µM (thrombin) [%]	Kal: percentage inhibition (kallikrein) [%]	inhibition at 10 µM (C1r; at a concentration of 1 × 10^-5 M) [%]	inhibition at 10 µM (C1s; read-out: Cls: percentage inhibition) [%]	inhibition at 10 µM (trypsin; read-out: Try: percentage inhibition) [%]	inhibition at 10 µM (C1r) [%]	IC50 (plasmin) [nM]
CC(C)(C)OC(=O)C=Cc1ccc(C(=O)NCc2ccc(C(=O)Oc3ccc4cc(C(=N)N)ccc4c3)o2)cc1 [Example 1, 6-Amidino-2-naphthyl 5-[4-(2-t-butoxycarbonylvinyl)benzoylaminomethyl]furan-2-carboxylate hydrobromide]	350	470	340	150	270	–	–	350	–	–	–	–	–	–	–
Cl.N=C(N)c1ccc2cc(OC(=O)c3ccc(CNC(=O)c4ccc(C=CC(=O)O)cc4)o3)ccc2c1 [Example 2, 6-Amidino-2-naphthyl 5-[4-(2-carboxyvinyl)benzoylaminomethyl]furan-2-carboxylate hydrochloride]	–	–	–	4800	–	8400	–	–	47	46	29	17	–	–	–
Cl.N=C(N)c1ccc2cc(OC(=O)c3ccc(CNC(=O)c4ccc(C(=O)O)cc4)o3)ccc2c1 [Example 3, 6-Amidino-2-naphthyl 5-(4-carboxybenzoylaminomethyl)furan-2-carboxylate hydrochloride]	–	–	–	8600	3400	–	–	–	26	33	–	–	48	34	–
CC(C)(C)OC(=O)c1ccc(CC(=O)NCc2ccc(C(=O)Oc3ccc4cc(C(=N)N)ccc4c3)o2)cc1 [Example 5, 6-Amidino-2-naphthyl 5-(4-t-butoxycarbonylphenylacetylaminomethyl)furan-2-carboxylate hydrochloride]	180	300	73	100	360	340	–	–	–	–	–	–	–	–	–
CC(C)(C)OC(=O)CC(=O)NCc1ccc(C(=O)Oc2ccc3cc(C(=N)N)ccc3c2)o1 [Example 15, 6-Amidino-2-naphthyl 5-t-butoxymalonylaminomethylfuran-2-carboxylate hydrochloride]	400	320	840	310	230	710	–	–	–	–	–	–	–	–	–
CC(C)(C)OC(=O)CCC(=O)NCc1ccc(C(=O)Oc2ccc3cc(C(=N)N)ccc3c2)o1 [Example 18, 6-amidino-2-naphthyl 5-(3-t-butoxycarbonylpropionylaminomethyl)furan-2-carboxylate hydrochloride]	350	210	340	–	190	400	–	–	–	–	–	–	–	–	190
CC(C)(C)OC(=O)CCCC(=O)NCc1ccc(C(=O)Oc2ccc3cc(C(=N)N)ccc3c2)o1 [Example 19, 6-Amidino-2-naphthyl 5-(4-t-butoxycarbonyl-butyrylaminomethyl)furan-2-carboxylate hydrochloride]	360	250	1800	170	720	250	–	–	–	–	–	–	–	–	–
CC(C)(C)OC(=O)CCC(NC(=N)N)C(=O)NCc1ccc(C(=O)Oc2ccc3cc(C(=N)N)ccc3c2)o1 (stereo not drawn) [Example 20, 6-amidino-2-naphthyl 5-(4-t-butoxycarbonyl-2-guanidinobutyrylaminomethyl)furan-2-carboxylate hydrochloride hydrobromide]	460	130	380	180	390	2000	–	–	–	–	–	–	–	–	–

Further lines, with some results ahead:

IC50 (thrombin) [nM]	IC50 (kallikrein) [nM]	IC50 (C1r; [1]) [nM]	IC50 (plasmin; [2]) [nM]	IC50 (C1s) [nM]	IC50 (trypsin; [3]) [nM]	IC50 (C1r) [nM]	SMILES	IC50 (trypsin) [nM]	inhibition at 10 µM (thrombin) [%]	Kal: percentage inhibition (kallikrein) [%]	inhibition at 10 µM (C1r; at a concentration of 1 × 10^-5 M) [%]	inhibition at 10 µM (C1s; read-out: Cls: percentage inhibition) [%]	inhibition at 10 µM (trypsin; read-out: Try: percentage inhibition) [%]	inhibition at 10 µM (C1r) [%]	IC50 (plasmin) [nM]
70	210	64	72	160	340	–	COC(=O)Cc1ccc(C(=O)NCc2ccc(C(=O)Oc3ccc4cc(C(=N)N)ccc4c3)o2)cc1 [Example 4, 6-Amidino-2-naphthyl 5-(4-methoxycarbonylmethylbenzoylaminomethyl)furan-2-carboxylate hydrochloride]	–	–	–	–	–	–	–	–
400	1500	740	300	460	1800	–	N=C(N)c1ccc2cc(OC(=O)c3ccc(CNC(=O)c4ccc(CC(=O)O)cc4)o3)ccc2c1 [Example 7, 6-Amidino-2-naphthyl 5-(4-carboxymethylbenzoylaminomethyl)furan-2-carboxylate hydrochloride]	–	–	–	–	–	–	–	–
1400	2700	830	1100	2000	2100	–	N=C(N)c1ccc2cc(OC(=O)c3ccc(CNC(=O)C=Cc4ccc(C(=O)O)cc4)o3)ccc2c1 [Example 8, 6-Amidino-2-naphthyl 5-(4-carboxycinnamoylaminomethyl)furan-2-carboxylate hydrochloride]	–	–	–	–	–	–	–	–
650	6000	2800	500	2300	4800	–	N=C(N)c1ccc2cc(OC(=O)c3ccc(CNC(=O)c4ccc(CCC(=O)O)cc4)o3)ccc2c1 [Example 9, 6-Amidino-2-naphthyl 5-[4-(2-carboxyethyl)benzoylaminomethyl]furan-2-carboxylate hydrochloride]	–	–	–	–	–	–	–	–
1600	250	–	150	26	600	160	N=C(N)c1ccc2cc(OC(=O)c3ccc(CNC(=O)[C@H]4CC[C@@H](C(=O)O)CC4)o3)ccc2c1 [Example 10, 6-Amidino-2-naphthyl 5-(cis-4-carboxy-1-cyclohexanoylaminomethyl)furan-2-carboxylate hydrochloride]	–	–	–	–	–	–	–	–
600	770	2800	270	210	480	–	N=C(N)c1ccc2cc(OC(=O)c3ccc(CNC(=O)/C=C\C(=O)O)o3)ccc2c1 [Example 12, 6-Amidino-2-naphthyl 5-(cis-2-carboxyvinyl)carbonylaminomethylfuran-2-carboxylate methanesulfonate]	–	–	–	–	–	–	–	–
1300	3800	6900	240	350	340	–	N=C(N)c1ccc2cc(OC(=O)c3ccc(CNC(=O)C(=O)O)o3)ccc2c1 [Example 16, 6-Amidino-2-naphthyl 5-oxaloaminomethylfuran-2-carboxylate hydrochloride]	–	–	–	–	–	–	–	–
960	700	540	330	180	310	–	N=C(N)c1ccc2cc(OC(=O)c3ccc(CNC(=O)CCC(=O)O)o3)ccc2c1 [Example 21, 6-amidino-2-naphthyl 5-(3-carboxypropionylaminomethyl)furan-2-carboxylate hydrochloride]	–	–	–	–	–	–	–	–
